For three compounds, EC50 and IC50 results are on record in publication PMC5610306, “Identification of a specific agonist of human TAS2R14 from Radix Bupleuri through virtual screening, functional evaluation and binding studies” (Scientific Reports, 2017).

In assay [1] the target is T1, TAS2R14 (Homo sapiens, UniProt Q9NYV8).
T1 construct: full-length cDNA, stably expressed in HEK293 cells with chimeric G16gust44 (G alpha 16 fused with 44 amino acids of gustducin)
T1 sequence (Q9NYV8 1-317): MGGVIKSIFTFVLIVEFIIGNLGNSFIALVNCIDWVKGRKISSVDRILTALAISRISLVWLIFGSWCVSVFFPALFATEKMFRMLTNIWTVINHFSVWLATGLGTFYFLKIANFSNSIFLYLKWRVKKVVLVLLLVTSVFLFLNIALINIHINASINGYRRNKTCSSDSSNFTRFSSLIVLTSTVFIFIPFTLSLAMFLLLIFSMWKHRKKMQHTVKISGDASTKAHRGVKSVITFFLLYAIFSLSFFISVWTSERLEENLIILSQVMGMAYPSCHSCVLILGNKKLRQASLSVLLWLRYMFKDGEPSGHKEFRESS
Briefly: Fluo-4 calcium mobilization, HEK293-TAS2R14-G16gust44 cells. It is filed as cell-based. (A change in cytosolic calcium serves as a functional read-out for many receptors and channels.)

Assay [2] addresses T1, TAS2R14. Briefly: Fluo-4 calcium mobilization, antagonist mode, HEK293-TAS2R14-G16gust44 cells. It is filed as cell-based. The following applies: in the presence of 10.0 μM aristolochic acid A as agonist, 37 °C, 2.5 mM probenecid in loading buffer.

Read-outs that look alike come from different tables or passages of the source.

The term EC50 denotes the concentration that produces a half-maximal response. On to `C[C@H]1O[C@@H](O[C@H]2CC[C@@]3(C)[C@@H](CC[C@]4(C)[C@@H]3C=CC3=C5CC(C)(C)CC[C@]5(CO)C(O)C[C@]34C)[C@]2(C)CO)[C@H](O)[C@@H](O[C@@H]2O[C@H](CO)[C@@H](O)[C@H](O)[C@H]2O)[C@H]1O` (stereo partly drawn) [SSb, Saikosaponin b], for which the EC50 in assay [1] (read-out: EC50) came out at 4.9 µM.

On to `COc1cccc2c1cc([N+](=O)[O-])c1c(C(=O)O)cc3c(c12)OCO3` [AAA, aristolochic acid A], for which, in assay [1], the EC50 worked out at 2 µM.

Broadly, the IC50 is the concentration that inhibits the measured activity by half. As to sulfamoyl-benzoic acid [SBA], the IC50 in assay [2] was found to be 18.5 µM.
